The results in this text go back to the METLIN SMRT retention time set (Domingo-Almenara et al. 2019).

The data set is described as follows: gradient 5% acetonitrile 3 min, to 50% in 2 min, to 85% in 15 min, held 3 min, 100 µL/min. Conditions: column: Zorbax Extend-C18 2.1 x 50 mm; eluents: water / acetonitrile, 0.1% formic acid. Put shortly: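 Each retention time is based on an adduct peak selected computationally and verified by manual inspection. Measurements used HPLC–quadrupole time-of-flight mass spectrometry in positive and negative ionization mode on mixtures of ~100 pure standards. Chromatography ran on a Zorbax Extend-C18 column (2.1 × 50 mm, 1.8 μm) at 100 μL/min with water and acetonitrile, each containing 0.1% formic acid, and dead and dwell volumes of 40 μL and 900 μL.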
For the compound `O=C(CN1CCN(c2ccccc2)CC1)Nc1nc(-c2ccccc2)cs1`, the RP-LC retention time was 740 s.

Compound `O=C(CN1CCN(c2ccccn2)CC1)N1c2ccccc2CCc2ccccc21` came in with an RP-LC retention time of 636 s.

`Cc1nc([C@@H]2CN(C(=O)C(C)(C)C)C[C@H]2C(N)=O)n[nH]1`: the RP-LC retention time was 564 s.

For `CC(=O)Nc1ccc(NC(=S)NC(=O)c2ccc(C(C)(C)C)cc2)cc1`, the RP-LC retention time was found to be 986 s.

In turn, `COc1cccc(CNC(=O)[C@@H]2[C@H](c3cc(OC)c(OC)c(OC)c3)c3cc4c(cc3[C@H](O)[C@H]2CO)OCO4)c1OC` registered an RP-LC retention time of 702 s.

The compound `COc1cccc(-c2noc(Cc3nnc(-c4ccccc4)o3)n2)c1OC` yielded an RP-LC retention time of 894 s.

Regarding `CSc1ccc(-c2nc3cnccn3c2Nc2ccc(C(=O)NCc3ccco3)cc2)cc1`, the RP-LC retention time amounted to 778 s.

`CCc1nnc(NC(=O)CN2C(=O)C3CCCCN3c3ccc(S(=O)(=O)N(C)C)cc32)s1` (stereo not drawn) returned an RP-LC retention time of 800 s.

In turn, `Cc1cc(-c2nnc(-c3ccc(F)cc3)o2)c(C)n1CC(=O)Nc1ccccc1F` gave an RP-LC retention time of 959 s.

As to `CCOCCCNC(=O)CN1C(=O)CCCc2ccccc21`, the RP-LC retention time is 681 s.

`CC1Oc2ccc(S(=O)(=O)N3CCC(C(=O)NCc4ccc(Cl)cc4)CC3)cc2NC1=O` (stereo not drawn): the RP-LC retention time was determined as 846 s.

Regarding `O=C(COc1ccc(F)cc1)NCc1ccc2c(c1)OCCCO2`, the RP-LC retention time amounted to 853 s.

In the case of `O=S(=O)(c1ccccc1)c1[nH]c(-c2ccccc2)nc1SCc1ccncc1`, the RP-LC retention time is 651 s.

As to `CCc1ccc(C2=C(C)C(N3CCC(C(=O)NCc4ccc(C)o4)CC3)=NS2(=O)=O)cc1`, the RP-LC retention time came to 944 s.

The compound `c1ccc(-c2nc3cc(-c4noc(-c5ccccn5)n4)ccc3o2)cc1` gave an RP-LC retention time of 1120 s.

In the case of `CCn1cccc1-c1nc(C)c(C(=O)N2CCN(c3cccc(C)c3)C(C)C2)s1` (stereo not drawn), the RP-LC retention time is 1190 s.

For `COCCn1c(SCc2nc(-c3cccc(F)c3)no2)nc2cc3c(cc2c1=O)OCO3`, the RP-LC retention time came to 1090 s.

For `CCN1C(=O)c2ccccc2Oc2ccc(C(=O)NC(C)Cc3ccco3)cc21` (stereo not drawn), the RP-LC retention time is 929 s.

`COC[C@@H]1CN(C(=O)c2cc3cc(Cl)ccc3[nH]2)C[C@H]1C(N)=O` registered an RP-LC retention time of 672 s.

For `Cc1noc(C)c1CCNC(=O)c1ccc2ccnc(N3CCN(c4ccc(F)cc4)CC3)c2c1`, the RP-LC retention time was 731 s.

`CCOc1ccc(/C=C/c2nn3c(-c4cccnc4)nnc3s2)cc1` registered an RP-LC retention time of 951 s.

Regarding `O=C(NCCC1=CCCCC1)c1nc(-c2ccnc(N3CCCC3)c2)no1`, the RP-LC retention time is 747 s.

`Cc1cccc(Cn2cccc2-c2nc(-c3ccc4c(c3)OCO4)no2)c1` yielded an RP-LC retention time of 1360 s.

In turn, `NC(=O)C1CCN(C(=O)Cc2csc(NC(=O)c3ccco3)n2)CC1` gave an RP-LC retention time of 572 s.

In turn, `COc1cccc(CNC(=O)C2CCCN(C(=O)C3Sc4ccccc4NC3=O)C2)c1` (stereo not drawn) returned an RP-LC retention time of 737 s.

For `CCOc1ccc(S(=O)(=O)N2CCCC(C(=O)NC)C2)cc1C` (stereo not drawn), the RP-LC retention time was determined as 788 s.

Regarding `CC(C(=O)N1CCN(c2ccccn2)CC1)n1ccc2cc(S(=O)(=O)N3CCCCCC3)ccc21` (stereo not drawn), the RP-LC retention time was 738 s.

`COc1ccc(-c2cc3nn(CC(=O)Nc4cc(F)ccc4C)c(=O)n3c(C)n2)cc1` had an RP-LC retention time of 885 s.

Compound `COc1ccc(Cl)c2c(=O)c3c([nH]c12)CCN(CC(=O)Nc1ccc(F)c(F)c1)C3` displayed an RP-LC retention time of 634 s.

As for `O=C(CN1C(=O)CSc2cccn2-c2ccccc21)NCc1ccc(F)cc1`, the RP-LC retention time is 866 s.

`Cc1ccc(Cn2nc3c(S(=O)(=O)N4CCCCCC4)cccn3c2=O)cc1` gave an RP-LC retention time of 1000 s.

For `COc1cc(NC(=O)Cn2c(=O)n(-c3ccc(F)cc3)c3ncccc32)cc(OC)c1`, the RP-LC retention time amounted to 849 s.

`Cc1ccc(-c2nnc(-c3nn(C)c4c3CN(S(=O)(=O)c3ccccc3C)CC4)o2)cc1` yielded an RP-LC retention time of 1020 s.

In turn, `CC(C)CNC(=O)N1CC(n2cc(C(=O)N3CCOCC3)nn2)C1` had an RP-LC retention time of 607 s.

`Cc1nc2ccn(Cc3cccnc3)c(=O)c2cc1C(=O)NCCc1ccco1` yielded an RP-LC retention time of 598 s.

Regarding `Cc1cc(C)n2c(Nc3ccc4c(c3)OCCO4)c(-c3ccc(Cl)cc3)nc2n1`, the RP-LC retention time was 746 s.

Turning to `COc1ccc(NC(=O)c2sc3[nH]c(=O)c(C(=O)O)cc3c2N)c(OC)c1`, the RP-LC retention time is 681 s.

In the case of `CCC(=O)NCc1ccc(-c2nc(C(C)C)cs2)cc1`, the RP-LC retention time was 873 s.

Compound `O=C(c1ccc(Br)cc1)N1CCN(c2nnc3ccccn23)CC1` came in with an RP-LC retention time of 653 s.

In turn, `Cc1ccc(C)c(-c2csc(NC(=O)c3ccc4c(c3)OCO4)n2)c1` yielded an RP-LC retention time of 1140 s.

Compound `COc1ccc(C)cc1NC(=O)C(=O)c1ccc[nH]1` displayed an RP-LC retention time of 982 s.

In turn, `CCOC(=O)C1=C(C)NC2=C(C(=O)C(C(=O)OC)C(C)C2)C1c1cccc(F)c1` (stereo not drawn) displayed an RP-LC retention time of 908 s.

Compound `CCC(Sc1nc(=O)cc(N)n1CCc1ccccc1)C(=O)Nc1nc(-c2ccccc2)cs1` (stereo not drawn) came in with an RP-LC retention time of 878 s.

Compound `Cc1noc(-c2cc(=O)n(CC(=O)NC3CCCCC3)c3ccccc23)n1` displayed an RP-LC retention time of 819 s.

`Cc1cc2nn(CC(=O)NCc3ccc(F)cc3)c(=O)n2c(Nc2ccccc2C)n1` showed an RP-LC retention time of 977 s.

As for `CCC(=O)N1CCc2cc(N3CC(C(=O)NCc4ccccc4Cl)CC3=O)ccc21` (stereo not drawn), the RP-LC retention time stood at 744 s.

`COc1ccc2[nH]cc(CCNC(=O)c3ccc(NC(=O)C4=CSCCO4)cc3)c2c1` registered an RP-LC retention time of 800 s.

On to `Cc1ccc(CNC(=O)c2cc3sccc3n2C)cc1`, for which the RP-LC retention time was found to be 958 s.

With `CC(=O)N1CCc2cc(-c3ccc(C(=O)NCCc4cccs4)cc3)ccc21`, the RP-LC retention time came to 843 s.

`CC1=NS(=O)(=O)N(C)C=C1C(=O)OCc1ccccc1Cl` yielded an RP-LC retention time of 951 s.

Compound `O=C(NCc1ccccn1)C1CCCN(c2ncnc3c2oc2ccccc23)C1` (stereo not drawn) displayed an RP-LC retention time of 579 s.

Compound `O=c1c2c(CO)c(-c3ccccc3)nn2ccn1Cc1ccccc1Cl` displayed an RP-LC retention time of 961 s.

With `CCc1cc(C(=O)N2CCCC2c2ccc(C)cc2)no1` (stereo not drawn), the RP-LC retention time amounted to 999 s.

Compound `COc1cccc(-c2noc(Cn3c(=O)n(C(C)C)c(=O)c4ccccc43)n2)c1` yielded an RP-LC retention time of 1110 s.

Compound `CC(C)Cn1c(-c2ccc(N(C)C)cc2)nc2ccccc21` registered an RP-LC retention time of 748 s.

Consider `CS(=O)(=O)N[C@H]1C[C@@H]2C[C@H]1N(C(=O)Cc1c(F)cccc1Cl)C2`, for which the RP-LC retention time was 717 s.

As to `CCOC(=O)c1c(C)[nH]c(C)c1S(=O)(=O)N1CCC(C(=O)Nc2cccc(C#N)c2)CC1`, the RP-LC retention time turned out to be 797 s.

`O=C(Nc1nc2ccccc2s1)c1ccc(S(=O)(=O)N2CCc3ccccc32)cc1` had an RP-LC retention time of 1040 s.
